The text below walks through data of PubChem BioAssay (NCI).

Some test systems named below: SF-295 CNS; SF-268 CNS; NCI-H23 lung; A549 NSCLC; NCI-H226 lung; UO-31 renal; RXF 393 renal; SF-539 CNS; HL-60(TB) leukemia.
Common to all, as to assay: NCI-60 cell line screen, 48 h

Where “and” joins values, the source holds several entries; their conditions need not be identical. Equal entries are not always repeated.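 A five-concentration, 48-hour dose response in 96-well plates underlies each endpoint, interpolated linearly between surrounding concentrations. GI50 marks 50% less growth. TGI denotes the concentration required for complete inhibition of growth.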 A value given as a limit tells only on which side of the number the result lay.

Consider `COc1cccc(-c2cc(C(=O)Nc3ccc(Cl)cc3)nc(N)n2)c1`, for which the TGI with SF-295 CNS, in the assay on SF-268 CNS, in the assay on NCI-H23 lung, with A549 NSCLC, in the assay with NCI-H226 lung and in the assay with UO-31 renal was more than 100 µM in each case. The TGI in the assay with RXF 393 renal, in the assay on SF-539 CNS and in the assay on HL-60(TB) leukemia was more than 100 µM each time.
Consider `CN1CCN2c3ccccc3CC(C#N)(C#N)C2C1` (stereo unspecified), for which the TGI with SF-295 CNS, in the assay on SF-268 CNS, in the assay with NCI-H23 lung, with A549 NSCLC, in the assay with NCI-H226 lung and with UO-31 renal was more than 100 µM in each case. Also, the TGI with RXF 393 renal, in the assay on SF-539 CNS and in the assay on HL-60(TB) leukemia was more than 100 µM each time.
`CN(C)C(=O)C(NCCO)c1ccccc1` (stereo unspecified): the TGI in the assay on SF-295 CNS, in the assay on SF-268 CNS, with NCI-H23 lung, in the assay with A549 NSCLC, with NCI-H226 lung and with UO-31 renal was more than 100 µM throughout. The TGI with RXF 393 renal and in the assay with SF-539 CNS was more than 100 µM in each case.
For the compound `Clc1cc2nc[nH]c2cc1Cl`, the TGI with SF-295 CNS, in the assay on SF-268 CNS, in the assay on NCI-H23 lung, in the assay on A549 NSCLC, with NCI-H226 lung and with UO-31 renal was more than 100 µM throughout. For the same compound, the TGI in the assay with SF-539 CNS and in the assay with HL-60(TB) leukemia was more than 100 µM in each case.
As for `CCOc1cccc2sc(N)nc12`, the TGI in the assay on SF-295 CNS, with SF-268 CNS, in the assay with NCI-H23 lung, in the assay with A549 NSCLC, in the assay on NCI-H226 lung and in the assay with UO-31 renal was more than 100 µM throughout. The TGI in the assay on RXF 393 renal, in the assay on SF-539 CNS and with HL-60(TB) leukemia was more than 100 µM each time.
As to `COC(=O)CCC(=O)Nc1cccc(C(F)(F)F)c1`, the TGI in the assay with SF-295 CNS, in the assay on SF-268 CNS, in the assay on NCI-H23 lung, in the assay with A549 NSCLC, in the assay with UO-31 renal and in the assay on RXF 393 renal was more than 100 µM throughout. Further, the TGI with SF-539 CNS and in the assay with HL-60(TB) leukemia was more than 100 µM in each case.
`N#CC1=C(c2ccccc2)NN(Cc2ccccc2)C(c2ccc(Cl)cc2)CC1=O` (stereo unspecified): the TGI is more than 100 µM in the assay with SF-295 CNS; more than 100 µM in the assay with SF-268 CNS; more than 100 µM in the assay with NCI-H23 lung; 62.3 µM with A549 NSCLC; more than 100 µM in the assay with NCI-H226 lung; 98.2 µM in the assay on RXF 393 renal. The TGI in the assay with HL-60(TB) leukemia worked out at 84.6 µM.
As to `CC1OC(OC23C(=O)CC(C)(O)CC2(O)C=CC2=C3C(=O)c3ccc(C4CC(OC5CCC(OC6CC(O)C(O)C(C)O6)C(C)O5)C(O)C(C)O4)c(O)c3C2=O)CCC1O` (stereo unspecified), the GI50 in the assay on SF-295 CNS is 16.5 µM and 3.06 µM; in the assay with RXF 393 renal, 13.8 µM and 5.87 µM. Further, the TGI in the assay on SF-295 CNS is 30.4 µM and 9.87 µM; in the assay with SF-268 CNS, 31.4 µM and 31.2 µM; with NCI-H23 lung, 33.1 µM and 30.7 µM; in the assay on A549 NSCLC, 82.1 µM and 65.2 µM; in the assay with NCI-H226 lung, 38.5 µM and 35.5 µM; in the assay with UO-31 renal it was 32.2 µM and 32.4 µM. Besides, the TGI in the assay on RXF 393 renal is 26.9 µM and 19.2 µM; in the assay on SF-539 CNS it was 31.8 µM and 31.4 µM; in the assay on HL-60(TB) leukemia, more than 100 µM.
Take `COc1cccc(-c2cc(=O)c3cc(C)c(C)c(C(=O)O)c3o2)c1`: the TGI in the assay with SF-295 CNS, in the assay with SF-268 CNS, in the assay with NCI-H23 lung, with A549 NSCLC, with UO-31 renal and with SF-539 CNS was more than 100 µM each time. In the assay with HL-60(TB) leukemia, the TGI was more than 100 µM.
Consider `COC(=O)c1ccc(CS(=O)(=O)c2ccccc2)cc1`, for which the TGI in the assay with SF-295 CNS, in the assay on SF-268 CNS, in the assay on NCI-H23 lung, with A549 NSCLC, in the assay on NCI-H226 lung and in the assay on UO-31 renal was more than 100 µM in each case. Also, the TGI in the assay with RXF 393 renal, in the assay with SF-539 CNS and in the assay with HL-60(TB) leukemia was more than 100 µM throughout.
For `C[C@]12CC[C@H](OC(=O)Cc3ccc(N(CCCl)CCCl)cc3)CC1CC[C@@H]1C2CC[C@]2(C)NC(=O)CCC12` (stereo partly specified), the TGI with SF-295 CNS is 25.2 µM; in the assay on SF-268 CNS, 33 µM; in the assay with NCI-H23 lung it was 35.4 µM; with A549 NSCLC, 37.5 µM; with NCI-H226 lung, 69.6 µM; in the assay on UO-31 renal, more than 100 µM. The figures for the TGI in the assay on RXF 393 renal, in the assay on SF-539 CNS and in the assay with HL-60(TB) leukemia were 24.3 µM, 12.5 µM and 6.06 µM, respectively.
As for `CCOC(=O)C1Nc2ccc([N+](=O)[O-])cc2[C@H]2OCC[C@@H]12` (stereo partly specified), the TGI in the assay on SF-295 CNS, in the assay on SF-268 CNS, in the assay on NCI-H23 lung, in the assay on A549 NSCLC, in the assay on NCI-H226 lung and in the assay with RXF 393 renal was more than 100 µM throughout. Moreover, the TGI in the assay with SF-539 CNS and in the assay with HL-60(TB) leukemia was more than 100 µM in each case.
On to `O=c1/c(=C/c2ccccc2O)sc2nc3ccccc3n12`, for which the TGI with SF-295 CNS is more than 100 µM; in the assay on SF-268 CNS it was 56.7 µM; in the assay on NCI-H23 lung it was more than 100 µM; in the assay with A549 NSCLC, more than 100 µM; in the assay with NCI-H226 lung it was more than 100 µM; with UO-31 renal, more than 100 µM. Moreover, the TGI was 57.9 µM with RXF 393 renal, more than 100 µM in the assay on SF-539 CNS and 26.8 µM in the assay on HL-60(TB) leukemia.
In the case of `Nc1nc2ccccc2c2[nH]c3ccccc3c12`, the GI50 with SF-268 CNS was 1.97 µM; in the assay on NCI-H23 lung, 1.37 µM; in the assay with A549 NSCLC, 1.09 µM; in the assay on NCI-H226 lung, 9.74 µM; with UO-31 renal, 1.31 µM; in the assay on RXF 393 renal, 0.311 µM. Moreover, the figures for the GI50 with SF-539 CNS and in the assay with HL-60(TB) leukemia were 1.76 µM and 1.98 µM, respectively. In addition, the TGI stood at 7.23 µM with SF-268 CNS; 2.86 µM in the assay on NCI-H23 lung; 2.37 µM in the assay with A549 NSCLC; 37.2 µM with NCI-H226 lung; 2.61 µM in the assay on UO-31 renal; 1.48 µM in the assay on RXF 393 renal. Further, the TGI in the assay on SF-539 CNS amounted to 3.37 µM; in the assay on HL-60(TB) leukemia, 5.73 µM.
As for `CC1=CC[C@@H]2[C@@H](CC[C@@]2(C)O)C(C)(C)[C@H]1CC[C@@H]1[C@@]2(C)CC[C@@H](O)C(C)(C)O[C@@H]2CC[C@]1(C)O`, the TGI in the assay with SF-295 CNS was more than 100 µM; with NCI-H23 lung, 76.2 µM; with A549 NSCLC, more than 100 µM; in the assay on UO-31 renal, 34.3 µM; in the assay on SF-539 CNS, 44 µM; in the assay on HL-60(TB) leukemia, 40.5 µM.
As to `CCOC(=O)NC(=O)c1cn(CC(=O)NCC(=O)NCC(=O)N2CCN(CCn3c(C)nc(C(N)=O)c3N)CC2)c(=O)[nH]c1=O`, the TGI with SF-295 CNS, in the assay on SF-268 CNS, in the assay with NCI-H23 lung, in the assay on A549 NSCLC, with UO-31 renal and with SF-539 CNS was more than 100 µM in each case. The compound further returned a TGI with HL-60(TB) leukemia of more than 100 µM.
Take `CN(C(=N)c1ccccc1)c1ccccc1`: the TGI in the assay with SF-295 CNS, in the assay with NCI-H23 lung, in the assay with A549 NSCLC, in the assay on NCI-H226 lung, in the assay with UO-31 renal and with SF-539 CNS was more than 100 µM in each case. In the assay with HL-60(TB) leukemia, this compound gave a TGI of more than 100 µM.
In the case of `Cc1cc(Cl)ccc1NC(=O)C1C(=O)C(=O)N(c2ccc(Cl)cc2C)C1=O` (stereo unspecified), the TGI in the assay on SF-295 CNS, in the assay on SF-268 CNS, with NCI-H23 lung, in the assay on A549 NSCLC, with NCI-H226 lung and in the assay on UO-31 renal was more than 100 µM in each case. Besides, the TGI in the assay with SF-539 CNS and with HL-60(TB) leukemia was more than 100 µM each time.
For the compound `[O-]c1ccccc1[C-]=Nc1ccccc1O.[O-]c1ccccc1[C-]=Nc1ccccc1O.[O]=[U]=[O]`, the GI50 was 16.4 µM in the assay on SF-295 CNS; 11.3 µM in the assay on SF-268 CNS; 11.3 µM in the assay with NCI-H23 lung; 16.2 µM in the assay on A549 NSCLC; 20.1 µM in the assay on RXF 393 renal; 1.76 µM in the assay on HL-60(TB) leukemia. Further, the TGI in the assay on SF-295 CNS was found to be 43.5 µM; in the assay on SF-268 CNS it was 58.1 µM; in the assay on NCI-H23 lung, 76.5 µM; in the assay on A549 NSCLC it was 43.9 µM; with RXF 393 renal, 45.5 µM; in the assay with HL-60(TB) leukemia, 7.47 µM.
Take `CN1C(=O)C(C)(C)NS1(=O)=O`: the TGI in the assay with SF-295 CNS, in the assay with SF-268 CNS, with NCI-H23 lung, in the assay with A549 NSCLC, with UO-31 renal and in the assay with RXF 393 renal was more than 100 µM in each case. Moreover, the TGI in the assay on SF-539 CNS and in the assay with HL-60(TB) leukemia was more than 100 µM in each case.
`CC(C)(C)c1cc(O)c2c(c1O)C(=O)CCC2`: the TGI with SF-295 CNS is 99.2 µM; in the assay on NCI-H23 lung it was more than 100 µM; in the assay on A549 NSCLC it was more than 100 µM; with RXF 393 renal it was 90.4 µM; in the assay with SF-539 CNS it was more than 100 µM; with HL-60(TB) leukemia, 43.9 µM.
For `OCC(O)C(O)C(O)c1nn[nH]n1` (stereo unspecified), the TGI in the assay with SF-295 CNS, in the assay with SF-268 CNS, in the assay on NCI-H23 lung, in the assay with NCI-H226 lung, with UO-31 renal and with SF-539 CNS was more than 100 µM in each case. This compound came in with a TGI in the assay with HL-60(TB) leukemia of more than 100 µM.
Regarding `C=CCNC(=O)ON1C(=O)CCC1=O`, the TGI with SF-295 CNS, with SF-268 CNS, in the assay on NCI-H23 lung, with A549 NSCLC, with UO-31 renal and in the assay on RXF 393 renal was more than 100 µM throughout. The TGI with SF-539 CNS and with HL-60(TB) leukemia was more than 100 µM throughout.
